Assay results from patent publication US20090311237A1, “Combination therapy using a soluble hyaluronidase and a bisphosphonate” (priority 2008, published 2009).
Where “and” joins values, the source holds several entries; their conditions need not be identical. Equal values may be shown once. Read-outs that look alike come from different tables or passages of the source.

Assay: Phase 1 Stage 1 clinical pharmacokinetics of SC ZA co-administered with rHuPH20
Type: in vivo, human
Parameters: key to Mean Conc. / Median Conc.: BLQ = blow limit for quantitation
Details: serum, serum; for MAT: subcutaneous, 100 mL, 24000 Units rHuPH20, read-out: MAT (mean absorption time = SC MRT − IV MRT); for half-life: read-out: T½ λz (converted)
Procedure: A pharmacokinetic study of zoledronic acid (ZA) co-administered with rHuPH20 in human subjects was conducted. The primary objective of the study was to determine the bioavailability of zoledronic acid dosed via subcutaneous (SC) co-administration with human recombinant hyaluronidase PH20 (rHuPH20). […] The patients were administered the prescribed dosage formulations as follows: Cohorts 1-5 were administered a single subcutaneous infusion in a dosage volume of 100 ml at a rate of 3 mL/min. […] The dosing solution is administered via needle or catheter into the SC space of the left anterior thigh (midway between the anterior iliac crest and the cephalad border of the patella). For cohorts 1-5, the dosing solutions were administered by a controlled rate infusion pump at approximately 3 mL/minute. […] The dosing solutions were administered by syringe push bolus injection. […] Serum concentration of ZA was determined using a qualified LC-MS-MS assay after derivatization with diazomethane (Zhu, L S et al. (2006) Rapid Commun. […] The assay range was from 2.0 to 400 ng/mL with a lower limit of quantitation (LLOQ) at 2.0 ng/mL. […] Non-compartmental analysis was used for derivation of primary and secondary pharmacokinetic (PK) parameters. […] Summary statistics (mean, standard deviation, and median) were calculated using JMP or Microsoft Excel.

[1] = ZA 0.25 mg SC infusion + 24000 Units rHuPH20, 12 h post infusion, n=3
[2] = ZA 0.25 mg SC infusion + 24000 Units rHuPH20, 24 h post infusion, n=3
[3] = ZA 0.25 mg SC infusion + 24000 Units rHuPH20, 48 h post infusion, n=3

O=P(O)(O)C(O)(Cn1ccnc1)P(=O)(O)O [ZA, 1-hydroxy-2-(1H-imidazol-1-yl)ethylidene-1,1-bisphosphonic acid]
concentration at 6 h (human, sc, ZA 5 mg SC infusion + 24000 Units rHuPH20, 6 h post infusion, n=3, read-out: Median Conc.): 22.3 ng/mL | concentration at 8 h (human, sc, ZA 5 mg SC infusion + 24000 Units rHuPH20, 8 h post infusion, individual subjects, read-out: Zoledronic Acid Concentration): 9.44 ng/mL | concentration at 8 h (human, sc, ZA 5 mg SC infusion + 24000 Units rHuPH20, 8 h post infusion, n=3, read-out: Mean Conc.): 11 ng/mL | concentration at 8 h (human, sc, ZA 5 mg SC infusion + 24000 Units rHuPH20, 8 h post infusion, n=3, read-out: Median Conc.): 11 ng/mL | concentration at 12 h (human, sc, ZA 5 mg SC infusion + 24000 Units rHuPH20, 12 h post infusion, individual subjects, read-out: Zoledronic Acid Concentration): 3.91 ng/mL | concentration at 12 h (human, sc, ZA 5 mg SC infusion + 24000 Units rHuPH20, 12 h post infusion, n=3, read-out: Mean Conc.): 4.51 ng/mL | concentration at 12 h (human, sc, ZA 5 mg SC infusion + 24000 Units rHuPH20, 12 h post infusion, n=3, read-out: Median Conc.): 4.61 ng/mL | concentration at 24 h (human, sc, ZA 5 mg SC infusion + 24000 Units rHuPH20, 24 h post infusion, individual subjects, read-out: Zoledronic Acid Concentration): 2.15 ng/mL | concentration at 24 h (human, sc, ZA 5 mg SC infusion + 24000 Units rHuPH20, 24 h post infusion, n=3, read-out: Mean Conc.): 2.45 ng/mL | concentration at 24 h (human, sc, ZA 5 mg SC infusion + 24000 Units rHuPH20, 24 h post infusion, n=3, read-out: Median Conc.): 2.23 ng/mL | concentration at 48 h (human, sc, ZA 5 mg SC infusion + 24000 Units rHuPH20, 48 h post infusion, individual subjects, read-out: Zoledronic Acid Concentration): 1.28 ng/mL | concentration at 48 h (human, sc, ZA 5 mg SC infusion + 24000 Units rHuPH20, 48 h post infusion, n=3, read-out: Mean Conc.): 1.55 ng/mL | concentration at 48 h (human, sc, ZA 5 mg SC infusion + 24000 Units rHuPH20, 48 h post infusion, n=3, read-out: Median Conc.): 1.63 ng/mL | MAT (human, 0.5 mg, ZA 0.5 mg SC, individual subjects): 0.96 h | MAT (human, 1 mg, ZA 1 mg SC, individual subjects): 1.68 h | half-life (human, Subj 1, ZA 0.0045 mg/kg SC, inf 0.554 hr, PH20 23928 U): 113 min | half-life (human, Subj 8, ZA 0.0032 mg/kg SC, inf 0.531 hr, PH20 22944 U): 185 min | half-life (human, Subj 11, ZA 0.0033 mg/kg SC, inf 0.554 hr, PH20 23928 U): 132 min | half-life (human, Subj 21, ZA 0.0066 mg/kg SC, inf 0.556 hr, PH20 24000 U): 136 min | half-life (human, Subj 29, ZA 0.0339 mg/kg SC, inf 0.556 hr, PH20 24000 U): 522 min | half-life (human, Subj 32, ZA 0.0350 mg/kg SC, inf 0.556 hr, PH20 24000 U): 1320 min | half-life (human, Subj 37, ZA 0.0791 mg/kg SC, inf 0.556 hr, PH20 24000 U): 1400 min | half-life (human, Subj 38, ZA 0.0706 mg/kg SC, inf 0.554 hr, PH20 23952 U): 1470 min | half-life (human, Subj 46, ZA 0.0877 mg/kg SC, inf 0.276 hr, PH20 12000 U): 1250 min | half-life (human, Subj 71, ZA 0.0781 mg/kg SC, inf 0.250 hr, PH20 6000 U): 1150 min | half-life (human, Subj 74, ZA 0.0794 mg/kg SC, inf 0.250 hr, PH20 6000 U): 1420 min | Zoledronic Acid Concentration (ZA 0.25 mg SC infusion + 24000 Units rHuPH20, 0 h post infusion, individual subjects, listed as Zoledronic Acid): 4.69 ng/mL | Zoledronic Acid Concentration (ZA 0.25 mg SC infusion + 24000 Units rHuPH20, 10 min post infusion, individual subjects, listed as Zoledronic Acid): 4.97 ng/mL and 4.87 ng/mL | Zoledronic Acid Concentration (ZA 0.25 mg SC infusion + 24000 Units rHuPH20, 0.5 h post infusion, individual subjects, listed as Zoledronic Acid): 5.17 ng/mL and 6.25 ng/mL | Zoledronic Acid Concentration (ZA 0.25 mg SC infusion + 24000 Units rHuPH20, 1 h post infusion, individual subjects, listed as Zoledronic Acid): 5.67 ng/mL and 6.60 ng/mL | Zoledronic Acid Concentration (ZA 0.25 mg SC infusion + 24000 Units rHuPH20, 2 h post infusion, individual subjects, listed as Zoledronic Acid): 4.33 ng/mL and 5.44 ng/mL | Zoledronic Acid Concentration (ZA 0.25 mg SC infusion + 24000 Units rHuPH20, 4 h post infusion, individual subjects, listed as Zoledronic Acid): 3.45 ng/mL and 3.06 ng/mL | Zoledronic Acid Concentration (ZA 0.25 mg SC infusion + 24000 Units rHuPH20, 6 h post infusion, individual subjects, listed as Zoledronic Acid): 2.02 ng/mL and 1.35 ng/mL | Zoledronic Acid Concentration (ZA 0.25 mg SC infusion + 24000 Units rHuPH20, 8 h post infusion, individual subjects, listed as Zoledronic Acid): 1.11 ng/mL and 0.79 ng/mL | Zoledronic Acid Concentration (ZA 0.25 mg SC infusion + 24000 Units rHuPH20, 12 h post infusion, individual subjects): BLQ < (0.500) ng/mL | Mean Conc. [1]: BLQ | Median Conc. [1]: BLQ | Zoledronic Acid Concentration (ZA 0.25 mg SC infusion + 24000 Units rHuPH20, 24 h post infusion, individual subjects): BLQ < (0.500) ng/mL | Mean Conc. [2]: BLQ | Median Conc. [2]: BLQ | Zoledronic Acid Concentration (ZA 0.25 mg SC infusion + 24000 Units rHuPH20, 48 h post infusion, individual subjects): BLQ < (0.500) ng/mL | Mean Conc. [3]: BLQ | Median Conc. [3]: BLQ | Zoledronic Acid Concentration (ZA 0.5 mg SC infusion + 24000 Units rHuPH20, 0 h post infusion, individual subjects, listed as Zoledronic Acid): 13.60 ng/mL
